We go through 17 molecules from ChEMBL document CHEMBL1136977, “Carbonic anhydrase activators. Activation of the membrane-associated isoform XV with amino acids and amines” (Bioorg Med Chem Lett, 2009).

The target of data set [1] is T1, Carbonic anhydrase 15 (Mus musculus) (UniProt Q99N23).
T1 sequence (whole entry): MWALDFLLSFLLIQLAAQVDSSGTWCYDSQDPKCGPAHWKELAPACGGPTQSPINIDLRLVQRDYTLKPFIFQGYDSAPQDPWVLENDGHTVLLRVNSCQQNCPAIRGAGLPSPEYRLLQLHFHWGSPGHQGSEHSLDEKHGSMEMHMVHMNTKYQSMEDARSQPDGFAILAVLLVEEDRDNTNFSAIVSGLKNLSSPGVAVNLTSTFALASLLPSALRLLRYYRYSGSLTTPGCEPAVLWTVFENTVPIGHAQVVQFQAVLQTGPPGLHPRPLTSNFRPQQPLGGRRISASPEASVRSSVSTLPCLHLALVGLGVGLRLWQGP
In words: Activation of membrane associated mouse recombinant carbonic anhydrase 15 isoform by stopped-flow CO2 hydrase method.

In data set [2] the target is Carbonic anhydrase 4 (Homo sapiens) (UniProt P22748). Nature of the data set: Activation of human recombinant carbonic anhydrase 4 lacking 20 amino terminal residues by stopped-flow CO2 hydrase method.
Substrate in data set [3]: N[C@@H](Cc1c[nH]cn1)C(=O)O
Nature of the data set: (§1) Activity of membrane associated mouse recombinant carbonic anhydrase 15 isoform.

Substrate in data set [4]: N[C@H](Cc1c[nH]cn1)C(=O)O
The description is as §1.

Chain of Carbonic anhydrase 4 (Homo sapiens) (P22748 whole entry): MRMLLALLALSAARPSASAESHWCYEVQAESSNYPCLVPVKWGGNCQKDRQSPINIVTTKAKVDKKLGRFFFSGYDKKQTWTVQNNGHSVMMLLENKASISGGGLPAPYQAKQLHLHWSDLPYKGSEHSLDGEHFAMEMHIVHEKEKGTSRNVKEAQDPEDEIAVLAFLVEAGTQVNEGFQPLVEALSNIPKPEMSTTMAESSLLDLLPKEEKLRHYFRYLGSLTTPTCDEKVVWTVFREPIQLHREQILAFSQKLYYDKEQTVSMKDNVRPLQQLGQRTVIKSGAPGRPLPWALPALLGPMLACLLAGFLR

On to `NCc1ccccn1`, for which the KA amounted to 11.6 µM in data set [1] and 5.19 µM in data set [2].
With `N[C@H](Cc1c[nH]c2ccccc12)C(=O)O`, the values for the KA in data set [1] and in data set [2] were 8.7 µM and 39.6 µM, respectively.
In the case of `N[C@H](Cc1ccc(O)c(O)c1)C(=O)O`, the KA was 4 µM in data set [1] and 34.7 µM in data set [2].
Consider `NCCc1c[nH]c2ccc(O)cc12`, for which the KA was 7.5 µM in data set [1] and 3.14 µM in data set [2].
Take `N[C@@H](Cc1c[nH]cn1)C(=O)O`: the KA was determined as 32.1 µM in data set [1] and 7.3 µM in data set [2].
As for `N[C@@H](Cc1ccc(O)cc1)C(=O)O`, the KA in data set [1] turned out to be 8.9 µM; in data set [2], 25.1 µM.
For `NCCN1CCOCC1` the same measures were 9.3 µM and 1.3 µM.
For `NCCc1ccccn1` the same measures were 11.9 µM and 7.13 µM.
As to `NCCc1ccc(O)c(O)c1`, the KA in data set [1] came out at 7.1 µM; in data set [2], 30.9 µM.
For the molecule `NCCc1c[nH]cn1`, the KA in data set [1] is 18.5 µM; in data set [2] it was 25.3 µM.
With `N[C@@H](Cc1ccc(O)c(O)c1)C(=O)O`, the KA is 6.5 µM in data set [1] and 15.3 µM in data set [2].
Take `NCCN1CCNCC1`: the KA in data set [1] stood at 10.4 µM; in data set [2] it was 24.9 µM.
With `Nc1ccc(C[C@H](N)C(=O)O)cc1`, the values for the KA in data set [1] and in data set [2] were 16.3 µM and 0.079 µM, respectively.
Take `N[C@H](Cc1c[nH]cn1)C(=O)O`: the KA in data set [1] worked out at 14.1 µM; in data set [2] it was 12.3 µM.
`N[C@@H](Cc1c[nH]c2ccccc12)C(=O)O`: the KA in data set [1] came to 13.5 µM; in data set [2], 37.1 µM.
For the molecule `CNC[C@@H](O)c1ccc(O)c(O)c1`, the values for the KA in data set [1] and in data set [2] were 6.9 µM and 45 µM, respectively.

B1: Carbonic anhydrase 15 (Mus musculus), Q99N23 (protein)
chain: T1 sequence (whole entry)
Consider B1, for which the figures for the kcat in data set [3] and in data set [4] were 8.5 ×10⁵ /s and 15 ×10⁵ /s, respectively.
